Test results: US9060966B2, “Use of 2,5-dihydroxybenzene derivatives for the treatment of arthritis and pain” (priority 2006, dated 2015)
Entries after “also recorded” stand apart in the source; their conditions may differ.

Key:
[1] = target: T1, fibroblast growth factor-1 (FGF-1) (Homo sapiens, UniProt P05230); assay: Co-crystallisation with FGF-1 (crystal diffraction of complexes); assay type: binding
From the text: FIG. 24. 2-acetoxy-5-hydroxybenzenesulfonic acid co-crystallized with fibroblast growth factor-1. […] The compound occupies a place that is very close to that described occupied by 2,5-dihydroxybenzenesulfonic acid, the aromatic ring of which forms a […] bond with the N^ε group of lysine 132, which is marked in panel A as reference. […] In panels A and B, the protein surface is colored according to its electrostatic potential (light grey: negative charge; dark grey: positive charge; white: lack of charge).
FIG. 25. 5-acetoxy-2-hydroxybenzenesulfonic acid co-crystallized with fibroblast growth factor-1. […] The compound occupies a place that is very close to that described occupied by 2,5-dihydroxybenzenesulfonic acid, the aromatic ring of which forms a cation-π bond with the N^ε group of lysine 132, which is marked in panel A as reference. […] In panels A and B, the protein surface is colored according to its electrostatic potential (light grey: negative charge; dark grey: positive charge; white: lack of charge).
FIG. 26. 2,5-diacetoxybenzenesulfonic acid co-crystallized with fibroblast growth factor-1. […] The compound occupies a place that is very close to that described occupied by 2,5-dihydroxybenzenesulfonic acid, the aromatic ring of which forms a cation-π bond with the N^ε group of lysine 132, which is marked in panel A as reference. […] In panels A and B, the protein surface is colored according to its electrostatic potential (light grey: negative charge; dark grey: positive charge; white: lack of charge).
Based on the crystal diffraction of the FGF-1:2-acetoxy-5-hydroxybenzene sulfonic acid, FGF-1:5-acetoxy-2-hydroxybenzene sulfonic acid and FGF-1:2,5-diacetoxybenzene sulfonic acid complexes, the structures of the complexes were calculated and represented. FIGS. 24, 25 and 26, which show the surface of the dyed protein according to its electrostatic potential (light grey: negative charge; dark grey: positive charge; white: lack of charge), show the manner in which 2-acetoxy-5-hydroxybenzene sulfonic acid, 5-acetoxy-2-hydroxybenzene sulfonic acid and 2,5-diacetoxybenzene sulfonic acid interact, respectively, with FGF-1.

[2] = target: T1, fibroblast growth factor-1 (FGF-1); assay: Inhibition of fibroblast mitogenesis induced by FGF-1 in Balb/c 3T3 fibroblasts; assay type: cell-based; design: host or cells: added to Balb/c 3T3 fibroblasts (mouse); details: quiescent Balb/c 3T3 cultures; potassium salts, except 2-acetoxy-5-hydroxybenzene sulfonate as calcium salt
Experimental: The evaluated compounds were used in the form of potassium salt, except in the first case in which calcium salt was used. The experiments were carried out as described in Fernandez-Tornero C et al. J Biol Chem, 2003.

[3] = tested on: methacholine induced bronchoconstriction in OVA-sensitized mice; assay: Experimentally induced (OVA) asthma in mice: methacholine bronchoconstriction and BAL cell count; assay type: in vivo; details: for methacholine induced bronchoconstriction (Penh): methacholine 5 and 20 mg/mL
Experimental: Effect of potassium 2,5-diacetoxybenzene sulfonate (DABS) on bronchoconstriction in asthmatic mice treated with methacholine. All the mice were exposed to nebulized methacholine (MC; 5 and 20 mg/ml). Bronchoconstriction was determined as the enhanced pause. (Penh), calculated as described in the corresponding example (example 13).
Effect of potassium 2,5-diacetoxybenzene sulfonate (DABS) on the inflammatory cell count in the bronchoalveolar lavage (BAL) in asthmatic mice.
6-9 week old Balb/c mice were used. The ovoalbumin (OVA)/aluminum complex was obtained after dissolving OVA (500 μg/mL) in PBS, and mixing it with an equal volume of 10% aluminum potassium sulfate at pH 6.5 for 1 hour. After centrifuging the pellet (750×g for 5 minutes) the OVA/aluminum pellet was resuspended in distilled water. On day 0, the mice were injected intraperitoneally injected with 100 μg of OVA/aluminum. Eight days later, the mice were anesthetized and exposed to 250 μg of OVA. Later, they were administered 125 μg of OVA on days 15, 18 and 21. […].
The following treatments were administered to the animals: (i.p.) vehicle from day 2, potassium 2,5-diacetoxybencene sulfonate (DABS; 100 mg/kg/day, i.p.) from day 2, DABS (100 mg/kg/day, i.p.) from day 8 and Combivent (20 μg/200 μg in aerosol) on days 20, 21 and 22, the latter as a reference treatment.
In order to evaluate the pulmonary function, the response to methacholine in conscious mice was determined, 24 hours after the last exposure to OVA. The mice were exposed to increasing methacholine concentrations (5 and 20 mg/mL) in the form of aerosol using an ultrasonic nebulizer during 2 minutes. The degree of bronchoconstriction was expressed as the enhanced pause (Penh) which correlates to the mouse air resistance, impedance and pressure within the pleura. The Penh enh was calculated using the formula Penh=[([…]/Rt−1)×(PEF/PIF)], where Te is expiratory time, Rt is relaxation time, PEF is peak expiratory flow and PIF is peak inspiratory flow x 0.67 coefficient.
After measuring airway hyperreactivity, the mice were sacrificed and the bronchoalveolar lavage (BAL) of the right lung was collected. The total number of cells in the BAL fluid was determined.

[4] = tested on: angiogenesis induced by Helicobacter pylori in the human gastric mucosa; assay: Angiogenesis induced by Helicobacter pylori in the human gastric mucosa (biopsies); assay type: in vivo; details: 500 mg/day oral, one week, one patient
Experimental: FIG. 5. Helicobacter pylori • A) Hematoxylin-eosin staining of the gastric mucosa of a sample obtained from a patient infected with Helicobacter pylori before treatment. The arrows and the asterisk indicate the formation of neovessels in the mucosa protruding the gastric lumen through the lost epithelial layer. • B) Hematoxylin-eosin staining of the gastric mucosa of a sample obtained from the same patient infected with Helicobacter pylori after administering 500 mg of 2,5-dihydroxybenzenesulfonate (DHBS) daily for a week.
A biopsy of the gastric mucosa was performed in a patient chronically infected with Helicobacter pylori before the oral treatment with 2,5-dihydroxybenzene sulfonic acid (Dobesilate) (500 mg/day). After a week of treatment, another biopsy was performed in the patient. Both biopsies were evaluated using hematoxylin-eosin staining. […] Microscopically, the arrows and the asterisk indicate the formation of neovessels in the mucosa protruding the gastric lumen through the lost epithelial layer. […] This example illustrates that the use of DHBS is beneficial in the treatment of gastritis and angiogenesis caused by the infection with Helicobacter pylori.

T1 sequence (P05230 whole entry, species assumed): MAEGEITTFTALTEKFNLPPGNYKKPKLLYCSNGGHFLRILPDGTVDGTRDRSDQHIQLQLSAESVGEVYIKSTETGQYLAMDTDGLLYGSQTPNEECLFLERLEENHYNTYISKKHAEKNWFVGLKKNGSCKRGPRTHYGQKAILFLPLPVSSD

Row | SMILES | acetoxyl groups of the compound when bound to the protein ([1]; electron density contoured at 1σ) | binding site on FGF-1 in the crystal complex ([1]; reference: site of 2,5-dihydroxybenzene sulfonic acid, lysine 132) | FGF-1 induced mitogenesis [2] | reduction of BAL cells compared with Combivent ([3]; 100 mg/kg/day i.p.) | methacholine induced bronchoconstriction (Penh) ([3]; 100 mg/kg/day i.p. from day 2) | methacholine induced bronchoconstriction (Penh) ([3]; 100 mg/kg/day i.p. from day 8) | presence of cells in bronchoalveolar lavage (BAL) ([3]; 100 mg/kg/day i.p., from day 2 or day 8) | increase of Penh after exposure to methacholine vs saline ([3]; DABS groups, 100 mg/kg/day i.p.) | angiogenic activity in the gastric mucosa [4] | appearance of gastric mucosa / epithelial membrane, hematoxylin-eosin [4] | symptoms of congestion and erythema of the gastric mucosa [4]
1 | CC(=O)Oc1ccc(OC(C)=O)c(S(=O)(=O)[O-])c1.[K+] [DABS, potassium 2,5-diacetoxybenzene sulfonate] | conserve the acetoxyl groups | a site that is very close to the one that has been described occupied by 2,5-dihydroxybenzene sulfonic acid | Inhibition | even more than the treatment with Combivent | completely prevented | completely prevented | significantly reduced | do not show a significant increase | – | – | –
2 | O=S(=O)(O)c1cc(O)ccc1O [DHBS, 2,5-dihydroxybenzenesulfonic acid] | – | – | – | – | – | – | – | – | less angiogenic activity | apparently normal; also recorded: normal appearance | the symptoms of congestion and erythema disappear
